Measurements published in paper PMC3344910 (Bioorganic & medicinal chemistry, 2012).
Read-outs that look alike come from different tables or passages of the source.

How the values were obtained:
KOP receptors [1] = molecular target: T1, KOP receptors (Homo sapiens, UniProt P41145); conditions: compared to 2 (U50,488) ref 32; cited from earlier work
KOP receptors [2] = molecular target: T1, KOP receptors; experiment: biochemical; format: biochemical
KOP receptors [3] = molecular target: T1, KOP receptors; conditions: compared to 1 ref 48; cited from earlier work
human DOP receptor = human DOP receptor (Homo sapiens, UniProt P41143); experiment: biochemical; format: binding
human MOP receptor = human MOP receptor (Homo sapiens, UniProt P35372); experiment: biochemical; format: binding
KOP receptors [4] = molecular target: T1, KOP receptors; experiment: biochemical; format: binding
KOP receptors [5] = molecular target: T1, KOP receptors; conditions: read-out: KOP Ki, previous report; cited from earlier work
KOP receptors [6] = molecular target: T1, KOP receptors; format: cell-based

T1 sequence (P41145 whole entry): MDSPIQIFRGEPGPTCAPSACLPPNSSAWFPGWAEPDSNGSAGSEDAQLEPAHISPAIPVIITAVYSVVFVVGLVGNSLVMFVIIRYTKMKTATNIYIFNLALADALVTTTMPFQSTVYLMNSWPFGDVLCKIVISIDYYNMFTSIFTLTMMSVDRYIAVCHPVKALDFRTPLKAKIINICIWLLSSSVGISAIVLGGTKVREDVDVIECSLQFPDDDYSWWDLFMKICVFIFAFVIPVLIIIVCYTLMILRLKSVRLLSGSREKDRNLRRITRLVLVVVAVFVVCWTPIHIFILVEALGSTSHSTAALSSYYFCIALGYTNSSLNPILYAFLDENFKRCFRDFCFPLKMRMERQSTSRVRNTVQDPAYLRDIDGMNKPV
Sequence of human DOP receptor (P41143 whole entry): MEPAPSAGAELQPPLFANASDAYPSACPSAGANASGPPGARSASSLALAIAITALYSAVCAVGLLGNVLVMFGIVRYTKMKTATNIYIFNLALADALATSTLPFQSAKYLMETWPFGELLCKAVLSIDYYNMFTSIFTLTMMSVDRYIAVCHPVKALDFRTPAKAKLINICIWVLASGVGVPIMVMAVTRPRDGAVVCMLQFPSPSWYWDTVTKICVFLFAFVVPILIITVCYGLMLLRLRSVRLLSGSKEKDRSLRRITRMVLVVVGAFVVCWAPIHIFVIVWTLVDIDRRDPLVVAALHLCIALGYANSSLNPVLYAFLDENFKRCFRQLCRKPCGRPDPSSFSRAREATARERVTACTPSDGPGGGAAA
Sequence of human MOP receptor (P35372 whole entry): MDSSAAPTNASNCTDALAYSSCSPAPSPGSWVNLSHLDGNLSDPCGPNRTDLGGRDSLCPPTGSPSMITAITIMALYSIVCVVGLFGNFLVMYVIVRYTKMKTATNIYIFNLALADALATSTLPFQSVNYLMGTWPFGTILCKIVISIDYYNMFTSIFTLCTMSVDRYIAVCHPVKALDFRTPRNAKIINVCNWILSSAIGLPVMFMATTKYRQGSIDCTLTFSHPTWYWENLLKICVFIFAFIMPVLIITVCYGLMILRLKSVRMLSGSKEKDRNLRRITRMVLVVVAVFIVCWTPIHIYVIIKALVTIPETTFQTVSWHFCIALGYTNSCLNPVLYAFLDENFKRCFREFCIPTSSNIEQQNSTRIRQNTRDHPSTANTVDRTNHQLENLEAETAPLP

## COC(=O)[C@@H]1C[C@H](OC(C)=O)C(=O)[C@H]2[C@@]1(C)CC[C@H]1C(=O)O[C@@H](c3ccoc3)C[C@]21C [Compound 3, (2R,4aR,6aR,7R,9S,10aS,10bR)-methyl 9-acetoxy-2-(furan-3-yl)-6a,10b-dimethyl-4,10-dioxododecahydro-1H-benzo[f]isochromene-7-carboxylate]
KOP receptors [1]
  Emax, [35S]GTP-γ-S assay, previous report: 73 ± 6
KOP receptors [2]
  less potent than 1 in the [35S]GTP-γ-S assay: 18 fold
KOP receptors [3]
  Emax, β-arrestin 2 DiscoveRx assay: 126 ± 10

## COC(=O)[C@@H]1C[C@H](OC(C)=O)C(=O)[C@H]2[C@@]1(C)CC[C@H]1C(=O)OC(/C=C\c3ccoc3)C[C@]21C (stereo partly drawn) [Compound 9, (4aR,6aR,7R,9S,10aS,10bR)-methyl 9-acetoxy-2-((Z)-2-(furan-3-yl)vinyl)-6a,10b-dimethyl-4,10-dioxododecahydro-1H-benzo[f]isochromene-7-carboxylate]
Human DOP receptor
  Ki: > 10000 nM
Human DOP receptor; read-out: DOP percent of control produced by the 10 μM test drug
  remaining activity at 10 µM: 94%
Human MOP receptor
  Ki: 2600 nM
KOP receptors [2]
  EC50: 1370 nM
KOP receptors [2]; read-out: KOP Emax ± SD, stimulation of [35S]GTP-γ-S binding
  Emax: 105 ± 4%
KOP receptors [4]
  Ki: 30 ± 4 nM
  higher affinity for the KOP receptor compared to trans analogue 8: ~40 fold

## COC(=O)[C@@H]1C[C@H](OC(C)=O)C(=O)[C@H]2[C@@]1(C)CC[C@H]1C(=O)O[C@H](C(=O)c3ccccc3)C[C@]21C [Compound 12, (2S,4aR,6aR,7R,9S,10aS,10bR)-methyl 9-acetoxy-2-benzoyl-6a,10b-dimethyl-4,10-dioxododecahydro-1H-benzo[f]isochromene-7-carboxylate]
KOP receptors [2]
  EC50: 1370 ± 180 nM

## COC(=O)[C@@H]1C[C@H](OC(C)=O)C(=O)[C@H]2[C@@]1(C)CC[C@H]1C(=O)O[C@H](C(=O)c3cccc(C(N)=O)c3)C[C@]21C [Compound 19, (2S,4aR,6aR,7R,9S,10aS,10bR)-methyl 9-acetoxy-2-(3-carbamoylbenzoyl)-6a,10b-dimethyl-4,10-dioxododecahydro-1H-benzo[f]isochromene-7-carboxylate]
KOP receptors [2]
  less potent than 1 in the [35S]GTP-γ-S assay: 18 fold
KOP receptors [4]
  increased KOP affinity compared to 17: approximately 3 fold

## COC(=O)[C@@H]1C[C@H](OC(C)=O)C(=O)[C@H]2[C@@]1(C)CC[C@H]1C(=O)O[C@H](C(=O)c3cccc(C#N)c3)C[C@]21C [Compound 20, (2S,4aR,6aR,7R,9S,10aS,10bR)-methyl 9-acetoxy-2-(3-cyanobenzoyl)-6a,10b-dimethyl-4,10-dioxododecahydro-1H-benzo[f]isochromene-7-carboxylate]
KOP receptors [4]
  decreased KOP affinity compared to 19: 6 fold

## COC(=O)[C@@H]1C[C@H](OC(C)=O)C(=O)[C@H]2[C@@]1(C)CC[C@H]1C(=O)O[C@H](C(=O)c3ccco3)C[C@]21C [Compound 23, (2S,4aR,6aR,7R,9S,10aS,10bR)-methyl 9-acetoxy-2-(furan-2-carbonyl)-6a,10b-dimethyl-4,10-dioxododecahydro-1H-benzo[f]isochromene-7-carboxylate]
KOP receptors [5]
  Ki: > 1000 nM

## COC(=O)[C@@H]1C[C@H](OC(C)=O)C(=O)[C@H]2[C@@]1(C)CC[C@H]1C(=O)O[C@H](C(=O)c3ccsc3)C[C@]21C [Compound 26, (2S,4aR,6aR,7R,9S,10aS,10bR)-methyl 9-acetoxy-6a,10b-dimethyl-4,10-dioxo-2-(thiophene-3-carbonyl)dodecahydro-1H-benzo[f]isochromene-7-carboxylate]
KOP receptors [2]
  more potent than 25 as an agonist in the [35S]GTP-γ-S assay: approximately 3 fold

## C/C=C\C(=O)[C@@H]1C[C@]2(C)[C@H]3C(=O)[C@@H](OC(C)=O)C[C@@H](C(=O)OC)[C@]3(C)CC[C@H]2C(=O)O1 [Compound 30, (2S,4aR,6aR,7R,9S,10aS,10bR)-methyl 9-acetoxy-2-((Z)-but-2-enoyl)-6a,10b-dimethyl-4,10-dioxododecahydro-1H-benzo[f]isochromene-7-carboxylate]
KOP receptors [4]
  decrease in KOP affinity compared to 12: 4 fold

## COC(=O)[C@@H]1C[C@H](OC(C)=O)C(=O)[C@H]2[C@@]1(C)CC[C@H]1C(=O)O[C@H](c3ccco3)C[C@]21C [Compound 31, (2S,4aR,6aR,7R,9S,10aS,10bR)-methyl 9-acetoxy-2-(furan-2-yl)-6a,10b-dimethyl-4,10-di-oxododecahydro-1H-benzo[f]isochromene-7-carboxylate]
KOP receptors [2]
  less potent than 1 in the [35S]GTP-γ-S assay: 3 fold
KOP receptors [4]
  Ki: 8.7 ± 0.4 nM
  increase in affinity at KOP receptors compared to 23: 9 fold
KOP receptors [6]
  decrease in potency compared to 1, Ca2+ mobilization: 2 fold
